This passage reports IC50 and inhibition results from ChEMBL document CHEMBL4411258, “Novel natural compounds from endophytic fungi with anticancer activity” (Eur J Med Chem, 2018).

One may read the IC50 as the midpoint of a concentration-inhibition curve. High values mean weaker potency in that assay, low ones greater potency in that assay. For orientation: inhibition means the share of the control response that was lost under treatment.

Test [1] concerns HepG2. The test can be described thus: Cytotoxicity against human HepG2 cells after 72 hrs by MTT assay. The note with it: HepG2, 72 h. Type of test: functional, cell-based. In general terms: Formazan colour is commonly taken as a measure of viable cells.
Test [2] deals with MDA-MB-435. Briefly: Cytotoxicity against human MDA-MB-435 cells after 72 hrs by MTT assay. The note with it: MDA-MB-435, 72 h. Type of test: functional, cell-based.
Test [3] deals with HCT-116. The test can be described thus: Cytotoxicity against human HCT116 cells after 72 hrs by MTT assay. The class given is functional, cell-based. The note with it: HCT-116, 72 h.
For test [4], the system named is KB. The test can be described thus: Cytotoxicity against human KB cells by MTT assay. The class given is functional, cell-based.
In test [5] the test system is T47D. Briefly: Cytotoxicity against human T47D cells after 48 hrs by MTT assay. The class given is functional, cell-based.
The test system of test [6] is RPMI-8226. Briefly: Cytotoxicity against human RPMI8226 cells after 48 hrs by MTT assay. The class given is functional, cell-based. Particulars: RPMI-8226, 48 h.
Test [7] deals with A2780. The test can be described thus: Cytotoxicity against human A2780 cells by MTT assay. Type of test: functional, cell-based.
Test [8] addresses Polyunsaturated fatty acid 5-lipoxygenase (Homo sapiens) (UniProt P09917). The test can be described thus: Inhibition of 5-LOX (unknown origin) at 30 ug/ml relative to control.
A short description of test [9]: Inhibition of TNFalpha-induced NFkappaB (unknown origin) activation expressed in HEK293 cells preincubated for 1 hr followed by TNFalpha stimulation and measured after 1 hr by dual luciferase reporter gene assay. Particulars: Homo sapiens. The class given is cell-based. On the technique in general: Reporter assays use an easily measured gene product as a stand-in for the process of interest.

The nature of test [10]: Cytotoxicity against human Tca8113 cells after 72 hrs by MTT assay. The class given is functional, cell-based.
The subject of test [11] is MG-63. Briefly: Cytotoxicity against human MG63 cells after 72 hrs by MTT assay. Type of test: functional, cell-based. The note with it: MG-63, 72 h.
The subject of test [12] is HepG2. The test can be described thus: Cytotoxicity against human HepG2 cells by MTT assay. Type of test: functional, cell-based.
Test [13] deals with SH-SY5Y. The test can be described thus: Cytotoxicity against human SH-SY5Y cells by MTT assay. Type of test: functional, cell-based.
Test [14] concerns NB-4. Briefly: Cytotoxicity against human NB4 cells by MTT assay. The class given is functional, cell-based.
For test [15], the system named is L02. Briefly: Cytotoxicity against human L02 cells by MTS assay. Type of test: cell-based.
In test [16] the test system is HCT-116. The test can be described thus: Cytotoxicity against human HCT116 cells by MTT assay. Type of test: functional, cell-based.
The test system of test [17] is A549. The test can be described thus: Cytotoxicity against human A549 cells by MTT assay. The class given is functional, cell-based.
Test [18] concerns PC-3. Briefly: Cytotoxicity against human PC3 cells by MTT assay. Type of test: functional, cell-based.
Test [19] deals with MCF7. Briefly: Cytotoxicity against human MCF7 cells by MTT assay. Type of test: functional, cell-based.
In test [20] the test system is A2780. The test can be described thus: Cytotoxicity against human A2780 cells after 72 hrs by MTT assay. Particulars: A2780, 72 h. The class given is functional, cell-based.
The subject of test [21] is A549. The test can be described thus: Cytotoxicity against human A549 cells after 24 hrs by MTT assay. The class given is functional, cell-based. The note with it: A549, 24 h.
Test [22] concerns MKN-45. The test can be described thus: Cytotoxicity against human MKN45 cells after 24 hrs by MTT assay. The note with it: MKN-45, 24 h. The class given is functional, cell-based.
In test [23] the test system is LoVo. The test can be described thus: Cytotoxicity against human LoVo cells after 24 hrs by MTT assay. Type of test: functional, cell-based.
The test system of test [24] is HL-60. Briefly: Cytotoxicity against human HL60 cells after 24 hrs by MTT assay. Type of test: functional, cell-based. Particulars: HL-60, 24 h.

Sequence of Polyunsaturated fatty acid 5-lipoxygenase (Homo sapiens) (P09917 whole entry): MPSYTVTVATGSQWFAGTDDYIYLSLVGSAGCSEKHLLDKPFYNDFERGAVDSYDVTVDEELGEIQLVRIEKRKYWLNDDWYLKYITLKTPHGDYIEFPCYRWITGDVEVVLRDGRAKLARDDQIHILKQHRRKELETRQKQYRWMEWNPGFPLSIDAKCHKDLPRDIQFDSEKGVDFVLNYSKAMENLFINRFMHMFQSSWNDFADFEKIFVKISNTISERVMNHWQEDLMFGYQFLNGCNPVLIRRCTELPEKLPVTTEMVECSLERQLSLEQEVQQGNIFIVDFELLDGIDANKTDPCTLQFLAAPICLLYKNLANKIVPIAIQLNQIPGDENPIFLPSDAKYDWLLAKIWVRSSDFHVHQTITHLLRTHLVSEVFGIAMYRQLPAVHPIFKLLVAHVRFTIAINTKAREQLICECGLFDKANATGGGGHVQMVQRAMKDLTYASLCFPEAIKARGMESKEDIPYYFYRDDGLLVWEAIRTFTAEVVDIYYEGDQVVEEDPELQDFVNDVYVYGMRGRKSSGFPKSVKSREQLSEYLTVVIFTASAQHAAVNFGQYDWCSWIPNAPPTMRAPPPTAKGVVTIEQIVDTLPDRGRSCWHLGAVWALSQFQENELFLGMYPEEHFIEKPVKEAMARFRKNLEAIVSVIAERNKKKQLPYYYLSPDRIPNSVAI

`O=Cc1cc(/C=C/c2cc(O)cc(O)c2)ccc1O`: the IC50 in [1], in test [2] and in [3] was below 50 µM in each case.
In turn, `COC(=O)c1cc(OC)cc(OC)c1C(=O)c1coc2c1OC(C)CC2=O` (centres undefined) displayed an IC50 in test [4] of 4.7 µM.
In test [5], `CCCC[C@H](C)/C=C(C)/C=C/C(=O)O` registered a half-maximal inhibitory concentration (IC50) of 1 to 10 µM.
Take `CO[C@H]1C[C@H](O)C2=C(C[C@H]3C(=C(C)C)CC[C@@]3(C)O2)C1=O`: the IC50 in test [6] was 92.1 µM.
In test [7], `O=C1N[C@H](Cc2ccccc2)C(=O)N[C@H]1Cc1cn([C@]23C[C@H]4C(=O)N[C@H](Cc5ccccc5)C(=O)N4[C@H]2Nc2ccccc23)c2ccccc12` came in with an IC50 of 56.7 µM.
As to `CCCCC(O)/C=C/C1=C(CO)[C@@H](O)[C@@H](O)[C@](Cl)(C/C=C(\C)C(=O)O)C1=O` (some centres undefined), the inhibition in test [8] is 48.3%.
With `C[C@@H]1CO[C@@]2(O)[C@@H]1C[C@]1(C)[C@@H](C)CC[C@H](O)[C@@]13O[C@@H]23`, it took 7.11 µM to reach half-maximal inhibition in test [9] (IC50). This counts as single-digit micromolar.
Consider `C[C@@H]1CC[C@@H]2[C@@H](C)C(=O)O[C@@H]2[C@@]12C=C(CO)CC2`, for which the IC50 in test [10] is 10 µM; in test [11], 0.055 µM.
Compound `CCCCC/C=C/C1=C(CO)[C@@H](O)[C@H]2O[C@@]2(C/C=C(\C)C(=O)O)[C@H]1O` came in with an inhibition in [8] of 67.4%.
Turning to `C=CC1=CC2=CC(=O)[C@](C)(OC(=O)/C=C/C(C)=C/[C@@H](C)CCCC)C(=O)C2=CO1`, in test [5], the 50% inhibitory concentration (IC50) was in the range of 1 to 10 µM.
Turning to `COC(=O)[C@]1(Cc2ccc(O)c(CC(C)=O)c2)OC(=O)C(O)=C1c1ccc(OC)cc1`, the concentration for half-maximal inhibition (IC50) in [12], in test [13], in [14] and in test [15] was below 10 µM each time.
Take `CC1=C2[C@@H](O)C[C@@]2(C)[C@@H]2C[C@@H]3CC[C@@H](C)[C@@]2(CC1)C3(C)C`: the IC50 in test [16] and in [4] was 25 µM in each case.
As to `COC(=O)[C@@H]1c2c(oc3cc(CCO)cc(O)c3c2=O)C=C[C@H]1O`, the 50% inhibitory concentration (IC50) was found to be 5.6 µM in test [17]; 4.1 µM in test [13]; 2.8 µM in [18]; 6.5 µM in test [19]; 2.2 µM in test [14].
In test [5], `CCCC[C@H](C)/C=C(C)/C=C/C(=O)O[C@@]1(C)C(=O)C=C2C=C(/C=C/C(=O)O)OC=C2C1=O` showed an IC50 of 1 to 10 µM.
Regarding `CC(C)(O)C(O)COc1ccc(CCO)cc1` (centres undefined), the 50% inhibitory concentration (IC50) in test [10] stood at 26 µM; in test [11], 35 µM.
As for `O=Cc1cc(/C=C/c2cc(O)cc(O)c2C=O)ccc1O`, the IC50 in test [1], in test [2] and in test [3] was below 50 µM throughout.
In test [7], `C/C=C(\C)[C@H]1[C@@H](/C=C/C=C(\C)[C@@H](O)[C@@H](C)C(C)O)[C@@H]2C[C@@H](OC(=O)Cc3ccccc3)[C@](C)(O)C[C@H]2[C@@H]2O[C@@]21C` (some centres undefined) returned an IC50 of 12.5 µM.
Regarding `O=C1N[C@@]2(Cc3ccccc3O2)C(=O)N/C1=C\c1ccccc1O`, in test [20], the half-inhibitory concentration (IC50) turned out to be 59 µM.
For the compound `CCCC[C@H](O)C(=O)C/C(=C\C(=O)O)OC`, the IC50 in [21], in test [22], in test [23] and in [24] was below 200 µM each time.
As for `O=Cc1c(O)cc(O)cc1/C=C/c1ccc(O)cc1`, the 50% inhibitory concentration (IC50) in test [1], in [2] and in test [3] was below 50 µM in each case.
For the compound `COC(=O)[C@@H]1c2c(oc3cc(CO)cc(OC)c3c2=O)C=C[C@H]1O`, the half-maximal inhibitory concentration (IC50) in test [17] was 5.7 µM; in test [13], 4.9 µM; in [19] it was 8.8 µM; in test [14], 8.6 µM.
`CO[C@]12OC[C@@H](C)[C@H]1C[C@]1(C)[C@@H](C)CC[C@H](O)[C@@]13O[C@@H]23` had an IC50 in test [9] of 19.2 µM.
Take `CC[C@@H](O)[C@H](O)[C@@H]1C[C@](O)(OC)CC(=O)O1`: the IC50 in test [21], in [22], in test [23] and in [24] was below 200 µM each time.
On to `CC(C)=C1CC[C@@]2(C)OC3=C(C[C@@H]12)C(=O)[C@]1(O)CO[C@H]3C1`, for which, in test [6], the IC50 is 83.7 µM. That is a double-digit micromolar value.
